Experimental data taken from PMC6364417, “Kinase inhibitor library screening identifies synergistic drug combinations effective in sensitive and resistant melanoma cells” (Journal of Experimental & Clinical Cancer Research : CR, 2019).

Columns and labels:
Assay in all cases: Kinase inhibitor library screening, PrestoBlue cell viability, 1 or 10 μM, 72 h
501Mel cells (parental) = conditions: 501Mel Parental
Method: (§1) After 72 h of treatment, cell viability was assessed using the PrestoBlue Cell Viability Reagent (ThermoFisher Scientific). Measurements were performed with the CLARIOstar Monochromator microplate reader (BMG Labtech).
(§2) Kinase inhibitor library screening. […] Each cell line was treated in its sensitive form (parental), and also as 2 resistant derivatives, which were made resistant to either Vemurafenib (XP) or Dabrafenib (GP). Drugs were added at 2 different concentrations, 1 and 10 μM, for 72 h and cell viability was assessed using the PrestoBlue Cell Viability assay. Results are depicted as % viability compared to untreated cells. Each cell line was analyzed at least in duplicate. […] (XLSX 95 kb)

[1] = system: 501Mel-GP cells (Dabrafenib-resistant); conditions: 501Mel GP
Method: as §1, §2

[2] = system: 501Mel-XP cells (Vemurafenib-resistant); conditions: 501Mel XP
Method: as §1, §2

A375 cells (parental) = conditions: A375 Parental
Method: as §1, §2

[3] = system: A375-GP cells (Dabrafenib-resistant); conditions: A375 GP
Method: as §1, §2

[4] = system: A375-XP cells (Vemurafenib-resistant); conditions: A375 XP
Method: as §1, §2

IGR37 cells (parental) = conditions: IGR37 Parental
Method: as §1, §2

[5] = system: IGR37-GP cells (Dabrafenib-resistant); conditions: IGR37 GP
Method: as §1, §2

[6] = system: IGR37-XP cells (Vemurafenib-resistant); conditions: IGR37 XP, 72 h; for cell viability, IGR37 XP, 1μΜ: in %
Method: as §1, §2

SMILES | cell viability (kinase inhibitor library screening) (501Mel cells (parental); 1μΜ, 72 h) [%] | cell viability (kinase inhibitor library screening) (501Mel cells (parental); 10μΜ, 72 h) [%] | cell viability (kinase inhibitor library screening) ([1]; 10μΜ, 72 h) [%] | cell viability (kinase inhibitor library screening) ([2]; 1μΜ, 72 h) [%] | cell viability (kinase inhibitor library screening) ([2]; 10μΜ, 72 h) [%] | cell viability (kinase inhibitor library screening) (A375 cells (parental); 10μΜ, 72 h) [%] | cell viability (kinase inhibitor library screening) (A375 cells (parental); 1μΜ, 72 h) [%] | cell viability (kinase inhibitor library screening) ([3]; 10μΜ, 72 h) [%] | cell viability (kinase inhibitor library screening) ([4]; 1μΜ, 72 h) [%] | cell viability (kinase inhibitor library screening) (IGR37 cells (parental); 1μΜ, 72 h) [%] | cell viability (kinase inhibitor library screening) (IGR37 cells (parental); 10μΜ, 72 h) [%] | cell viability (kinase inhibitor library screening) ([5]; 10μΜ, 72 h) [%] | cell viability (kinase inhibitor library screening) ([6]; 1μΜ) [%] | cell viability (kinase inhibitor library screening) ([6]; 10μΜ) [%] | cell viability, 501Mel Parental, 1μΜ (501Mel cells (parental); 1μΜ, 72 h, in %) | cell viability, 501Mel Parental, 10μΜ (501Mel cells (parental); 10μΜ, 72 h, in %) | cell viability, 501Mel GP, 1μΜ ([1]; 1μΜ, 72 h, in %) | cell viability, 501Mel GP, 10μΜ ([1]; 10μΜ, 72 h, in %) | cell viability, 501Mel XP, 1μΜ ([2]; 1μΜ, 72 h, in %) | cell viability, 501Mel XP, 10μΜ ([2]; 10μΜ, 72 h, in %) | further results
Cc1[nH]nc2ccc(-c3cncc(OC[C@@H](N)Cc4ccccc4)c3)cc12 [A-674563] | 73.1 | 1.4 | 0.638 | 56.5 | 0.5 | 4.6 | 82.1 | 2.7 | 54.3 | 96.7 | 1.9 | 2.8 | 78.0 | 2.1 | – | – | – | – | – | – | cell viability (kinase inhibitor library screening) ([1]; 1μΜ, 72 h): 64.5%; cell viability (kinase inhibitor library screening) ([3]; 1μΜ, 72 h): 63.4%; cell viability (kinase inhibitor library screening) ([4]; 10μΜ, 72 h): 6.6%; cell viability (kinase inhibitor library screening) ([5]; 1μΜ, 72 h): 99.0%
N#Cc1c(O)c2c(-c3ccc(-c4ccccc4O)cc3)csc2[nH]c1=O [A-769662] | 99.2 | 97.1 | 87.9 | 97.4 | 85.6 | 97.0 | 105.0 | 96.0 | 104.3 | 105.9 | 111.3 | 94.7 | 104.5 | 84.8 | – | – | – | – | – | – | –
CCN1CCN(Cc2ccc(-c3cc4c(N[C@H](C)c5ccccc5)ncnc4[nH]3)cc2)CC1 [AEE788 (NVP-AEE788)] | – | – | – | – | – | – | – | – | – | – | – | – | – | – | 103.7 | 1.2 | 114.3 | 1.2 | 105.3 | 0.239 | cell viability, A375 Parental, 1μΜ (A375 cells (parental); 1μΜ, 72 h, in %): 108.2; cell viability, A375 Parental, 10μΜ (A375 cells (parental); 10μΜ, 72 h, in %): 70.3; cell viability, A375 GP, 1μΜ ([3]; 1μΜ, 72 h, in %): 110.2; cell viability, A375 GP, 10μΜ ([3]; 10μΜ, 72 h, in %): 49.2; cell viability, A375 XP, 1μΜ ([4]; 1μΜ, 72 h, in %): 105.5; cell viability, A375 XP, 10μΜ ([4]; 10μΜ, 72 h, in %): 70.7; cell viability, IGR37 Parental, 10μΜ (IGR37 cells (parental); 10μΜ, 72 h, in %): 87.9; cell viability, IGR37 GP, 10μΜ ([5]; 10μΜ, 72 h): 82.6%; cell viability, IGR37 GP, 1μΜ ([5]; 1μΜ, 72 h, in %): 94.0; cell viability, IGR37 XP, 10μΜ ([6]; 10μΜ): 25.4%; cell viability, IGR37 XP, 1μΜ ([6]; 1μΜ): 82.4
N#C/C(=C\c1ccc(O)c(O)c1)C(=O)NCc1ccccc1 [AG-490] | – | – | – | – | – | – | – | – | – | – | – | – | – | – | 99.1 | 92.7 | 105.8 | 86.5 | 93.1 | 79.3 | cell viability, A375 Parental, 10μΜ (A375 cells (parental); 10μΜ, 72 h, in %): 88.6; cell viability, A375 GP, 10μΜ ([3]; 10μΜ, 72 h, in %): 88.5; cell viability, A375 XP, 1μΜ ([4]; 1μΜ, 72 h, in %): 99.9; cell viability, A375 XP, 10μΜ ([4]; 10μΜ, 72 h, in %): 91.1; cell viability, IGR37 Parental, 1μΜ (IGR37 cells (parental); 1μΜ, 72 h, in %): 105.9; cell viability, IGR37 GP, 10μΜ ([5]; 10μΜ, 72 h): 88.3%; cell viability, IGR37 XP, 10μΜ ([6]; 10μΜ): 70.7%; cell viability, IGR37 XP, 1μΜ ([6]; 1μΜ): 104.5
NC(=O)c1ccc(-c2nc(-c3ccc4c(c3)OCO4)c(-c3ccccn3)[nH]2)cc1 [SB 431542] | – | – | – | – | – | – | – | – | – | – | – | – | – | – | – | – | – | – | – | – | cell viability (kinase inhibitor library screening) (501Mel cells (parental); 1μΜ, in %): 98.3; cell viability (kinase inhibitor library screening) ([1]; 1μΜ, in %): 102.6; cell viability (kinase inhibitor library screening) ([1]; 10μΜ, in %): 85.7; cell viability (kinase inhibitor library screening) ([2]; 1μΜ, in %): 93.8; cell viability (kinase inhibitor library screening) ([2]; 10μΜ, in %): 79.9; cell viability (kinase inhibitor library screening) (A375 cells (parental); 1μΜ, in %): 106.2; cell viability (kinase inhibitor library screening) ([3]; 1μΜ, in %): 100.0; cell viability (kinase inhibitor library screening) ([3]; 10μΜ, in %): 98.5; cell viability (kinase inhibitor library screening) ([4]; 1μΜ, in %): 109.0; cell viability (kinase inhibitor library screening) ([4]; 10μΜ, in %): 106.6; cell viability (kinase inhibitor library screening) (IGR37 cells (parental); 10μΜ, in %): 97.8; cell viability (kinase inhibitor library screening) ([5]; 1μΜ, in %): 100.4; cell viability (kinase inhibitor library screening) ([5]; 10μΜ, in %): 87.9
